# Experimental data: ChEMBL document CHEMBL1201862, “PubChem BioAssay data set” (2004)
#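 Assay format: 96-well plates, 48-hour exposure. GI50: concentration for 50% inhibition of growth.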 Active and inactive are the calls of the source. Cut-off read from the data, not from the text of the source: active = GI50 up to about 1.1 µM and inactive = higher.
# What was measured:
# Assay in all cases: inhibition of tumour cell growth, NCI panel, 48 h
# [1] = tested on: SN12C
# [2] = tested on: SNB-19
# [3] = tested on: A549
# [4] = tested on: EKVX
# [5] = tested on: PC-3
# [6] = tested on: NCI-H23
# [7] = tested on: RXF 393
# [8] = tested on: OVCAR-3
# [9] = tested on: HOP-62
# [10] = tested on: Malme-3M
# [11] = tested on: HCC 2998
# [12] = tested on: K562
# [13] = tested on: OVCAR-4
# [14] = tested on: RPMI-8226
# [15] = tested on: NCI-H226
# [16] = tested on: SW-620
# [17] = tested on: HCT-15
# [18] = tested on: NCI-H522
# [19] = tested on: MOLT-4
# [20] = tested on: MDA-MB-231
SMILES,GI50 [1],GI50 [2],GI50 [3],GI50 [4],GI50 [5],GI50 [6],GI50 [7],GI50 [8],GI50 [9],GI50 [10],GI50 [11],GI50 [12],GI50 [13],GI50 [14],GI50 [15],GI50 [16],GI50 [17] [µM],GI50 [18],GI50 [19],GI50 [20]
COc1ccc(/C=C/C(=N/NC(=O)N/N=C(/C=C/c2ccc(OC)cc2)C(C)C)C(C)C)cc1,> 100 µM (inactive),> 100 µM (inactive),45.3 µM (inactive),40 µM (inactive),50.9 µM (inactive),> 100 µM (inactive),> 100 µM (inactive),41.9 µM (inactive),22 µM (inactive),62.8 µM (inactive),38.7 µM (inactive),37.8 µM (inactive),> 100 µM (inactive),33.2 µM (inactive),> 100 µM (inactive),> 100 µM (inactive),49.5,63.1 µM (inactive),26.1 µM (inactive),> 100 µM (inactive)
N=C(N)NS(=O)(=O)c1ccc(NNc2c3ccccc3nc3c(C(=O)Nc4ccc(S(N)(=O)=O)cc4)cccc23)cc1,43.8 µM (inactive),22.9 µM (inactive),> 100 µM (inactive),80.2 µM (inactive),36.1 µM (inactive),51.1 µM (inactive),40.6 µM (inactive),22.9 µM (inactive),53.7 µM (inactive),20.6 µM (inactive),19.5 µM (inactive),19.9 µM (inactive),51.2 µM (inactive),17.8 µM (inactive),92 µM (inactive),22.1 µM (inactive),> 100,14.7 µM (inactive),5.75 µM (inactive),27.9 µM (inactive)
C[C@@H]1CCC2[C@@H](C)[C@H](O[C@H]3O[C@@H]4O[C@@]5(C)CCC6[C@H](C)CCC([C@H]3C)[C@]64OO5)O[C@@H]3O[C@@]4(C)CCC1[C@@]23OO4 (stereo not given in full),0.186 µM (active),3.17 µM (inactive),0.0914 µM (active),0.142 µM (active),0.0148 µM (active),0.0415 µM (active),1.3 µM (inactive),0.408 µM (active),4.04 µM (inactive),0.635 µM (active),0.813 µM (active),0.0202 µM (active),0.27 µM (active),0.0127 µM (active),2.11 µM (inactive),0.0418 µM (active),0.022,0.0577 µM (active),0.0546 µM (active),0.385 µM (active)
O/N=N/c1cnccn1,> 1250 µM (inactive),> 1250 µM (inactive),> 1250 µM (inactive),> 1250 µM (inactive),> 1250 µM (inactive),859 µM (inactive),> 1250 µM (inactive),> 1250 µM (inactive),218 µM (inactive),> 1250 µM (inactive),> 1250 µM (inactive),> 1190 µM (inactive),> 438 µM (inactive),> 1250 µM (inactive),1250 µM (inactive),> 1250 µM (inactive),> 1080,1030 µM (inactive),196 µM (inactive),> 1250 µM (inactive)
N=C(/C=C/c1ccc(-c2cn3cc(/C=C/C(=N)N4CCCC4)ccc3n2)cc1)N1CCCC1,> 100 µM (inactive),> 100 µM (inactive),61.9 µM (inactive),> 100 µM (inactive),> 100 µM (inactive),> 100 µM (inactive),50.6 µM (inactive),60.1 µM (inactive),> 100 µM (inactive),27 µM (inactive),> 100 µM (inactive),> 100 µM (inactive),> 100 µM (inactive),> 100 µM (inactive),> 100 µM (inactive),> 100 µM (inactive),> 100,31 µM (inactive),> 100 µM (inactive),> 100 µM (inactive)
O=C(/C=C1\Nc2ccccc2N\C1=C/C(=O)c1ccc(F)cc1)c1ccc(F)cc1,> 100 µM (inactive),> 100 µM (inactive),> 100 µM (inactive),> 100 µM (inactive),> 100 µM (inactive),> 100 µM (inactive),> 100 µM (inactive),48.2 µM (inactive),61 µM (inactive),> 100 µM (inactive),63.2 µM (inactive),> 100 µM (inactive),> 100 µM (inactive),51.4 µM (inactive),> 100 µM (inactive),> 100 µM (inactive),> 100,> 100 µM (inactive),> 100 µM (inactive),> 100 µM (inactive)
O=C(O)c1c2c(cc3c1CC(Cc1ccccc1)C3=O)CCC2 (stereo not given),> 100 µM (inactive),> 100 µM (inactive),19.5 µM (inactive),> 100 µM (inactive),64.3 µM (inactive),> 100 µM (inactive),> 100 µM (inactive),> 100 µM (inactive),> 100 µM (inactive),> 100 µM (inactive),> 100 µM (inactive),75.2 µM (inactive),> 100 µM (inactive),39.7 µM (inactive),> 100 µM (inactive),> 100 µM (inactive),41.7,74.6 µM (inactive),96.8 µM (inactive),30.5 µM (inactive)
CC1CCCCCC(=O)c2c(O)cc(O)cc2CC(=O)O1 (stereo not given) [CURVULARIN],> 100 µM (inactive),> 100 µM (inactive),> 100 µM (inactive),61.5 µM (inactive),66.8 µM (inactive),48.9 µM (inactive),> 100 µM (inactive),96.6 µM (inactive),> 100 µM (inactive),> 100 µM (inactive),> 100 µM (inactive),41.6 µM (inactive),> 100 µM (inactive),67.8 µM (inactive),> 100 µM (inactive),> 100 µM (inactive),> 100,> 100 µM (inactive),73.8 µM (inactive),> 100 µM (inactive)
Cc1cc2[nH]c(Cl)c(/C=C3\C(=O)Nc4ccccc43)c2cc1O,3.38 µM (inactive),3.27 µM (inactive),5.08 µM (inactive),4.7 µM (inactive),2.2 µM (inactive),2.32 µM (inactive),2.25 µM (inactive),4.61 µM (inactive),4.93 µM (inactive),1.6 µM (inactive),4.2 µM (inactive),0.957 µM (active),7.52 µM (inactive),2.7 µM (inactive),0.542 µM (active),1.81 µM (inactive),1.66,1.5 µM (inactive),1.46 µM (inactive),3.09 µM (inactive)
N#Cc1ccc(C(=O)/C=C/c2ccc(O)c(O)c2)cc1,15.5 µM (inactive),15.8 µM (inactive),15.3 µM (inactive),17.2 µM (inactive),15.3 µM (inactive),16.9 µM (inactive),16.8 µM (inactive),15.8 µM (inactive),17.9 µM (inactive),15.7 µM (inactive),14.8 µM (inactive),7.1 µM (inactive),12.4 µM (inactive),3.1 µM (inactive),20.2 µM (inactive),13.2 µM (inactive),15.5,1.53 µM (inactive),8.38 µM (inactive),15.6 µM (inactive)
CCC1=NC(C(F)(F)F)(C(F)(F)F)N=C(/N=C(/N)N(C)C(C(C)C)P(=O)(OC(C)C)OC(C)C)O1 (stereo not given),> 100 µM (inactive),> 100 µM (inactive),> 100 µM (inactive),> 100 µM (inactive),> 100 µM (inactive),> 100 µM (inactive),> 100 µM (inactive),> 100 µM (inactive),> 100 µM (inactive),> 100 µM (inactive),> 100 µM (inactive),> 100 µM (inactive),> 100 µM (inactive),> 100 µM (inactive),> 100 µM (inactive),> 100 µM (inactive),> 100,> 100 µM (inactive),> 100 µM (inactive),> 100 µM (inactive)
